Earlier results as cited in PMC7993274 (Clinical and Translational Science, 2020).

Key:
[1] = levels peaking 2 weeks post‐treatment; cited from earlier work
[2] = patients with rheumatoid arthritis (N = 3,492); cited from earlier work

CCS(=O)(=O)N1CC(CC#N)(n2cc(-c3ncnc4[nH]ccc34)cn2)C1 [baricitinib]
effect on platelet counts [1]: transiently increase platelet counts
venous thromboembolism incidence rate [2]: 0.5 per 100 patient‐years
